For 24 compounds, IC50 results are on record in US9512107B2, “Therapeutically active compositions and their methods of use” (Agios Pharmaceuticals, Inc., priority 2012, dated 2016).

Positions count from the first letter of the chain named. A value given as a limit tells only on which side of the number the result lay.

One assay addresses T1, IDH2 R140Q (Homo sapiens, UniProt P48735, R140Q).
T1 sequence (P48735 40-452 R140Q): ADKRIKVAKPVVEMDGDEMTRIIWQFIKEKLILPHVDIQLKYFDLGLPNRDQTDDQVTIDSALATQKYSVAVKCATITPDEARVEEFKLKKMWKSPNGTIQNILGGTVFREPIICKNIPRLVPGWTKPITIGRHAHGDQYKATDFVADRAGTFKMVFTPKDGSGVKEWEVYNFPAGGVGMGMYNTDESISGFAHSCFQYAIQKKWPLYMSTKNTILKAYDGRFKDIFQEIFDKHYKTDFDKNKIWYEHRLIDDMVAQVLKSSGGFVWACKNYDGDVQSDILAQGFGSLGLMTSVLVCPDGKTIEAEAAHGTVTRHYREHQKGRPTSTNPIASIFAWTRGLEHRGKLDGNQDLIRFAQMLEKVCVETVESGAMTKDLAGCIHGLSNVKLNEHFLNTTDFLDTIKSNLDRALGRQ
As to the kind of experiment: IDH2 R140Q enzymatic assay (cofactor depletion, similar format). In kind it is biochemical. The note with it: read-out: Enz R140Q.

A further assay concerns the target T2, IDH2 R172K (Homo sapiens, UniProt P48735, R172K).
T2 sequence (P48735 40-452 R172K): T1 sequence (P48735 40-452 R140Q) with Q101R, R133K
The assay is described as follows: IDH2 R172K enzymatic assay (NADPH cofactor depletion, diaphorase/resazurin readout). The note with it: read-out: Enz R172K. In kind it is biochemical. An outline of the steps: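 Compound was preincubated with IDH2 R172K for 1 h at room temperature, then the reaction was started with substrate mix containing 50 μM NADPH and 6.3 mM α-KG. After another 1 h at room temperature, stop mix with diaphorase and resazurin consumed the remaining NADPH, and resorufin fluorescence was read.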
In general terms: The colour change of resazurin is a common sign of viable cells or microbes.

Assay [1] has as its system U87MG pLVX-IDH2 R140Q-neo cells. The assay is described as follows: U87MG pLVX-IDH2 R140Q-neo cell based assay, 2-HG in media by LC-MS at 48 hours. The settings on record: Homo sapiens, U-87 MG. An outline of the steps: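 U87MG cells stably expressing IDH2 R140Q were seeded overnight, then exposed to compound at 0.2% final DMSO at 37 °C, 5% CO2. 2-HG in the medium was quantified by LC-MS at 48 h. Growth inhibition was read by CellTiter-Glo luminescence at 72 h.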

For the compound `CC1(Nc2nc(Nc3cc(F)cc(F)c3)nc(-c3cccc(N)n3)n2)CC1` [Compound 693, 6-(6-aminopyridin-2-yl)-N2-(3,5-difluorophenyl)-N4-(1-methylcyclopropyl)-1,3,5-triazine-2,4-diamine], the IC50 at IDH2 R140Q was 100 to 1000 nM; on IDH2 R172K, < 100 nM; in assay [1], < 100 nM.
Take `CC(C)Nc1nc(Nc2cncc(F)c2)nc(-c2ccccc2F)n1` [Compound 374, 6-(2-fluorophenyl)-N^2-(5-fluoropyridin-3-yl)-N^4-isopropyl-1,3,5-triazine-2,4-diamine]: the IC50 (on IDH2 R140Q; on IDH2 R172K; in assay [1]) was < 100 nM throughout.
On to `CC(C)Nc1nc(Nc2ccccc2)nc(-c2cccc(C(F)(F)F)n2)n1` [Compound 247, N^2-isopropyl-N^4-phenyl-6-(6-(trifluoromethyl)pyridin-2-yl)-1,3,5-triazine-2,4-diamine], for which the IC50 (on IDH2 R140Q; on IDH2 R172K; in assay [1]) was < 100 nM each time.
As for `CC(C)(C)Nc1nc(Nc2ccnc(C(F)(F)F)c2)nc(-c2cccc(N)n2)n1` [Compound 695, 6-(6-aminopyridin-2-yl)-N2-tert-butyl-N4-(2-(trifluoromethyl)pyridin-4-yl)-1,3,5-triazine-2,4-diamine], the figures for the IC50 (on IDH2 R140Q; at IDH2 R172K; in assay [1]) were 100 to 1000 nM, < 100 nM and < 100 nM, respectively.
Take `CC(C)Nc1nc(Nc2ccnc(C(F)(F)F)c2)nc(-c2cc(O)ccc2F)n1` [Compound 634, 4-Fluoro-3-[4-isopropylamino-6-(2-trifluoromethyl-pyridin-4-ylamino)-[1,3,5]triazin-2-yl]-phenol]: the IC50 was 100 to 1000 nM at IDH2 R140Q, < 100 nM on IDH2 R172K and < 100 nM in assay [1].
Take `CC(C)(C)Nc1nc(Nc2cc(F)cc(F)c2)nc(-c2cccc(C(F)(F)F)n2)n1` [Compound 601, N2-(tert-butyl)-N4-(3,5-difluorophenyl)-6-(6-(trifluoromethyl)pyridin-2-yl)-1,3,5-triazine-2,4-diamine]: the IC50 is 100 to 1000 nM on IDH2 R140Q, < 100 nM on IDH2 R172K and < 100 nM in assay [1].
Turning to `CC(C)Nc1nc(Nc2cccc(F)c2)nc(-c2c(F)cccc2F)n1` [Compound 473, 6-(2,6-Difluoro-phenyl)-N-(3-fluoro-phenyl)-N′-isopropyl-[1,3,5]triazine-2,4-diamine], the IC50 (at IDH2 R140Q; at IDH2 R172K; in assay [1]) was < 100 nM throughout.
As for `CC(C)(CO)CNc1nc(Nc2ccnc(C(F)(F)F)c2)nc(-c2cccc(Cl)n2)n1` [Compound 495, 3-[4-(6-Chloro-pyridin-2-yl)-6-(2-trifluoromethyl-pyridin-4-ylamino)-[1,3,5]triazin-2-ylamino]-2,2-dimethyl-propan-1-ol], the results for the IC50 (at IDH2 R140Q; at IDH2 R172K; in assay [1]) were 100 to 1000 nM, < 100 nM and < 100 nM, respectively.
In the case of `CCCn1cc(Nc2nc(NC(C)C)nc(-c3cccc(C(F)(F)F)n3)n2)cn1` [Compound 555, N-Isopropyl-N′-(1-propyl-1H-pyrazol-4-yl)-6-(6-trifluoromethyl-pyridin-2-yl)-[1,3,5]triazine-2,4-diamine], the IC50 on IDH2 R140Q was 100 to 1000 nM; at IDH2 R172K, 1000 to 10000 nM; in assay [1] it was < 100 nM.
For `COc1ccc(F)c(-c2nc(Nc3cc(F)cc(F)c3)nc(NC(C)C)n2)n1` [Compound 461, N-(3,5-Difluoro-phenyl)-6-(3-fluoro-6-methoxy-pyridin-2-yl)-N′-isopropyl-[1,3,5]triazine-2,4-diamine] the same measures were < 100 nM, < 100 nM and < 100 nM.
Consider `CC(C)Nc1nc(Nc2cc(F)cc(F)c2)nc(-c2ccnc(N)n2)n1` [Compound 482, 6-(2-Amino-pyrimidin-4-yl)-N-(3,5-difluoro-phenyl)-N′-isopropyl-[1,3,5]triazine-2,4-diamine], for which the results for the IC50 (at IDH2 R140Q; on IDH2 R172K; in assay [1]) were 100 to 1000 nM, < 100 nM and < 100 nM, respectively.
For `CC(C)Nc1nc(Nc2ccccc2)nc(-c2ccccc2)n1` [Compound 100], the IC50 (at IDH2 R140Q; on IDH2 R172K; in assay [1]) was < 100 nM each time.
For `COC1(c2cc(Nc3nc(NC(C)C)nc(-c4cccc(C(F)(F)F)n4)n3)ccn2)CC1` [Compound 559, N-Isopropyl-N′-[2-(1-methoxy-cyclopropyl)-pyridin-4-yl]-6-(6-trifluoromethyl-pyridin-2-yl)-[1,3,5]triazine-2,4-diamine], the values for the IC50 (on IDH2 R140Q; on IDH2 R172K; in assay [1]) were 100 to 1000 nM, < 100 nM and < 100 nM, respectively.
Take `CC(C)(O)CNc1nc(Nc2ccccc2)nc(-c2ccccc2)n1` [Compound 203, 2-methyl-1-(4-phenyl-6-phenylamino-[1,3,5]triazin-2-yl-amino)-propan-2-ol]: the IC50 on IDH2 R140Q is < 100 nM; at IDH2 R172K, 1000 to 10000 nM; in assay [1], 100 to 1000 nM.
On to `N#CC1(c2cc(Nc3nc(NCC4CC4)nc(-c4cccc(C(F)(F)F)n4)n3)ccn2)CC1` [Compound 617, 1-(4-((4-((cyclopropylmethyl)amino)-6-(6-(trifluoromethyl)pyridin-2-yl)-1,3,5-triazin-2-yl)amino)pyridin-2-yl)cyclopropanecarbonitrile], for which the IC50 at IDH2 R140Q is 100 to 1000 nM; on IDH2 R172K, < 100 nM; in assay [1], < 100 nM.
`CC(C)Nc1nc(Nc2ccccc2)nc(-c2cc(Cl)ccn2)n1` [Compound 228, 6-(4-chloropyridin-2-yl)-N^2-isopropyl-N^4-phenyl-1,3,5-triazine-2,4-diamine]: the IC50 at IDH2 R140Q was < 100 nM; on IDH2 R172K, 100 to 1000 nM; in assay [1] it was 100 to 1000 nM.
`CCCCNc1nc(Nc2ccnc(Cl)c2)nc(-c2ccccc2)n1` [Compound 260]: the IC50 (on IDH2 R140Q; on IDH2 R172K; in assay [1]) was < 100 nM throughout.
On to `CC(C)OC(=O)Nc1nc(Nc2ccccc2)nc(-c2ccccc2)n1` [Compound 160, isopropyl 4-phenyl-6-(phenylamino)-1,3,5-triazin-2-ylcarbamate], for which the IC50 was < 100 nM on IDH2 R140Q, 100 to 1000 nM on IDH2 R172K and 100 to 1000 nM in assay [1].
On to `FC(F)(F)c1cc(Nc2nc(NCC3CC3)nc(-c3cccc(C(F)(F)F)n3)n2)ccn1` [Compound 597, N2-(cyclopropylmethyl)-6-(6-(trifluoromethyl)pyridin-2-yl)-N4-(2-(trifluoromethyl)pyridin-4-yl)-1,3,5-triazine-2,4-diamine], for which the results for the IC50 (on IDH2 R140Q; at IDH2 R172K; in assay [1]) were 100 to 1000 nM, < 100 nM and < 100 nM, respectively.
Regarding `CC(C)Nc1nc(Nc2ccc(F)cc2F)nc(-c2ccccc2)n1` [Compound 140], the figures for the IC50 (at IDH2 R140Q; on IDH2 R172K; in assay [1]) were < 100 nM, 1000 to 10000 nM and 100 to 1000 nM, respectively.
In the case of `CCOCCNc1nc(Nc2ccncc2)nc(-c2ccccc2)n1` [Compound 262, N^2-(2-ethoxyethyl)-6-phenyl-N^4-(pyridin-4-yl)-1,3,5-triazine-2,4-diamine], the IC50 is 100 to 1000 nM on IDH2 R140Q, 1000 to 10000 nM on IDH2 R172K and 100 to 1000 nM in assay [1].
As for `CC(F)(F)c1cc(Nc2nc(NCC3CC3)nc(-c3cccc(C(C)(F)F)n3)n2)ccn1` [Compound 610, N2-(cyclopropylmethyl)-6-(6-(1,1-difluoroethyl)pyridin-2-yl)-N4-(2-(1,1-difluoroethyl)pyridin-4-yl)-1,3,5-triazine-2,4-diamine], the IC50 was 100 to 1000 nM at IDH2 R140Q, < 100 nM on IDH2 R172K and < 100 nM in assay [1].
Consider `CC(C)(O)CNc1nc(Nc2ccnc(F)c2)nc(-c2ccccc2F)n1` [Compound 623, 1-(4-(2-fluorophenyl)-6-(2-fluoropyridin-4-ylamino)-1,3,5-triazin-2-ylamino)-2-methylpropan-2-ol], for which the IC50 on IDH2 R140Q fell in the range of 100 to 1000 nM; on IDH2 R172K, 1000 to 10000 nM; in assay [1], 100 to 1000 nM.
As for `CC(C)Nc1nc(Nc2ccnc(C(F)(F)F)c2)nc(-c2cccc(S(C)(=O)=O)c2)n1` [Compound 657, N-Isopropyl-6-(3-methanesulfonyl-phenyl)-N′-(2-trifluoromethyl-pyridin-4-yl)-[1,3,5]triazine-2,4-diamine], the IC50 is 100 to 1000 nM on IDH2 R140Q, 100 to 1000 nM at IDH2 R172K and < 100 nM in assay [1].
